Here are results for nine compounds from patent US11576911B2, “Composition and method for treatment of depression and psychosis in humans” (Glytech LLC, priority 2012, dated 2023).

Read-outs that look alike come from different tables or passages of the source.

One data set relates to Male BalbC/J mice. Nature of the data set: Rodent forced swim test (FST), immobility time. Details: key to Mean immobility time in the rodent forced swim test (FST): seconds of immobility over the 6-min test. The conditions noted are these: for Mean immobility time in the rodent forced swim test (FST): Table 5; for Effect on immobility in the FST, in words: at indicated doses of Table 5; for immobility time in the rodent forced swim test (FST), Mean: Table 3. The data set is classed as in vivo. From the text: Male BalbC/J mice (8 weeks old) from Jackson Laboratories (Bar Harbor, Me.) were used. Upon receipt, mice were assigned unique identification numbers (tail marked) and were group housed in OPTImice cages. All animals were acclimated to the colony room for 1 week prior to testing. During the period of acclimation, animals were examined on a regular basis, handled, and weighed to assure adequate health and suitability. Animals were maintained on a 12/12 light/dark cycle. The room temperature was maintained between 20 and 23° C. with a relative humidity maintained between 30% and 70%. Chow and water were provided ad libitum for the duration of the study. All testing was performed during the animal's light cycle phase.
Mice were acclimated to the test room at least 1 hour prior to commencing the test. The forced swimming test consisted of one 6-minute session of forced swimming in individual opaque cylinders (15 cm tall×10 cm wide, 1000 ml beakers) containing fresh tap water at a temperature of 23±2° C. and a depth of 12 cm (approximately 800 ml) for each test animal. The time the animal spent immobile was recorded over the 6 min trial. Every 1 min the cumulative immobility time was recorded from the start of the session and noted on the study data record sheet. Immobility was defined as the postural position of floating in the water. The animals were generally observed with the back slightly hunched and the head above water with no movements or with small stabilizing movements of the limbs. After the swim test, each animal was placed in a pre-heated cage with a heating pad and allowed to dry.
The main variable used to represent immobility in this test was the total time immobile during the 6-min test period. Statistics were performed by analysis of variance (ANOVA) with Dunnett post-hoc testing vs. the control condition or by t-test as appropriate.
Sertraline, a known antidepressant, is used as a positive control.
For this study, further NMDAR antagonist compounds were tested for their ability to reduce immobility time in the rodent FST test, indicative of potential anti-depressant effects, and further 5-HT2AR antagonists were tested for their ability to produce reductions of time spent in the open arms of the EPM, indicative to potential liability to induce anxiety, akathisia and suicidality in humans

Data set [1] has as its system Male C57Bl/6J mice. Kind of data set: Elevated plus maze (EPM), DOI 2 mg/kg in all conditions. The data set is classed as in vivo. As to conditions: for Reversal of 5-HT2A antagonist induced reductions in open arm measures of the EPM, in words: NMDAR antagonists, summary of Example 1; for DTO Mean / PCT Mean: Table 2; for Mean distance travelled in the open arm of the EPM: Table 6, DOI 2 mg/kg added; for Distance Traveled Open (DTO) Mean / Percent open (PCT) Mean: Table 1; for Effect on distance travelled in open arm / % time in open arm of EPM, in words: agent alone vs control, doses of Tables 1 and 2.

Data set [2] can be described thus: Pharmacokinetics of D-cycloserine in humans (literature).
For data set [3] the following is noted: cited from earlier work; for Serum concentration: mean dose 8.8 mg/kg, patients (Hung et al.).
In data set [4] the test system is Male C57Bl/6J mice. The conditions noted are these: cited from earlier work; for Distance travelled in the open arm and % time in the open arms, in words: previously demonstrated; for Distance travelled in the open arm and % time in the open arm, in words: selective 5-HT2A antagonist alone, previously demonstrated (U.S. Pat. No. 9,846,453).
The nature of data set [5]: Pharmacokinetics of D-cycloserine in rodents (plasma, IP). The data set is classed as in vivo, mice. How it is done: For this study, male C57BL/6J mice (8 weeks old) from Jackson Laboratories (Bar Harbor, Me.) were used.
For each treatment group a total of 12 mice were dosed: 4 mice were collected at 30, 60 and 120 min. Mean plasma level was computed over this time period.

The conditions of data set [6]: acidic gastric conditions, gastric emptying up to 3 hours; cited from earlier work.

Regarding `O=C(O)[C@H]1C[C@@H](CP(=O)(O)O)CCN1` (relative stereo) [CGS-19755, cis-4-(phosphonomethyl)-2-piperidinecarboxylic acid], the “Mean immobility time in the rodent forced swim test (FST)” value (from here on “Mean immobility time”) in the data set on Male BalbC/J mice (0.03 mg/kg) came out at 125.60; in the data set with Male BalbC/J mice (0.1 mg/kg), 144.30; in the data set with Male BalbC/J mice (0.3 mg/kg), 120.00; in the data set with Male BalbC/J mice (1.0 mg/kg), 137.20; in the data set with Male BalbC/J mice (3.0 mg/kg) it was 154.90; with Male BalbC/J mice (10 mg/kg), 114.70. Also, in the data set on Male BalbC/J mice, the “Effect on immobility in the FST, in words” value is “numerically reduce immobility”. The “Reversal of 5-HT2A antagonist induced reductions in open arm measures of the EPM, in words” value in the data set on Male C57Bl/6J mice [1] was “Pro-therapeutic effects”.

For the compound `O=c1ccc2ccc(OCCCCN3CCN(c4cccc5sccc45)CC3)cc2[nH]1` [Brexpiprazole], the immobility time in the rodent forced swim test (FST), Mean in the data set on Male BalbC/J mice (.3 mpk alone) came out at 239 s. For the same compound, the “Effect on immobility in the forced swim test, in words” value in the data set on Male BalbC/J mice (agent alone (Table 3)) is listed as “significantly increased immobility”. The “DTO Mean” value with Male C57Bl/6J mice [1] (.3 mg/kg alone) is on record as 131.6. In addition, in the data set with Male C57Bl/6J mice [1] (.3 mg/kg alone), the “PCT Mean” value turned out to be 28.7%. The results for the “Mean distance travelled in the open arm of the EPM” value in the data set on Male C57Bl/6J mice [1] (0.1 mg/kg), in the data set with Male C57Bl/6J mice [1] (0.3 mg/kg) and with Male C57Bl/6J mice [1] (1 mg/kg) were 160.10, 204.70 and 93.70, respectively.

With `O=C(O)[C@H]1CN(C/C=C/P(=O)(O)O)CCN1` [D-CPPene, D-(E)-4-(3-phosphonoprop-2-enyl)piperazine-2-carboxylic acid], the “Mean immobility time” value is on record as 124.20 in the data set on Male BalbC/J mice (0.03 mg/kg); 153.40 in the data set on Male BalbC/J mice (0.1 mg/kg); 129.10 with Male BalbC/J mice (0.3 mg/kg); 156.80 with Male BalbC/J mice (1.0 mg/kg); 124.60 in the data set on Male BalbC/J mice (3.0 mg/kg); 141.20 in the data set with Male BalbC/J mice (10 mg/kg). For the same compound, in the data set with Male C57Bl/6J mice [1], the “Reversal of 5-HT2A antagonist induced reductions in open arm measures of the EPM, in words” value is given as “Pro-therapeutic effects”.

Turning to `N[C@@H]1CON=C1O` [D-cycloserine, 3-Isoxazolidinone, 4-amino-, (4R)-(9CI)], the “Effect on immobility in the forced swim test, in words” value with Male BalbC/J mice (DCS 30 mg/kg in combination with lurasidone) is on record as “did not significantly reduce immobility”; in the data set with Male BalbC/J mice (DCS 300 mg/kg in combination with aripiprazole), “did not significantly reduce immobility”; in the data set on Male BalbC/J mice (DCS 300 mg/kg in combination with brexpiprazole), “significantly reduced immobility”; in the data set with Male BalbC/J mice (DCS 300 mg/kg in combination with lurasidone 0.2 to 3 mg/kg), “significantly reduced immobility”. For the same compound, the “Effect in the forced swim test assay, in words” value with Male BalbC/J mice (DCS 30 mg/kg, IP or PO (FIGS. 1 and 2)) is reported as “no significant effect”; with Male BalbC/J mice (DCS 100 mg/kg or above, PO or IP (FIGS. 1 and 2)), “highly significant”. Further, the Sustained blood levels entry in data set [2] (500 mg/day, human PK studies) is listed as “below 25 microgram/mL”. Moreover, the “Sustained plasma level, median” value in data set [2] (corresponding to AUC over 24 hr, 500 mg (Zhu et al.)) was 8.9 microgram/mL. The “Human dose required to produce a serum level in excess of 25 microgram/mL” value in data set [2] (from dose-serum concentration relationship of Hung et al.) is given as “exceeding 10 mg/kg”. Moreover, the Serum concentration in data set [3] (2 hr after dosing) is reported as 19.7 microgram/mL; in data set [3] (6 hr after dosing), 18.1 microgram/mL. Also, the “AUC over 24 hr, median” value in data set [3] (single 500 mg dose, fasting, humans (Zhu et al.)) is listed as 214 microgram-hr/mL. The “Distance travelled in the open arm and % time in the open arms, in words” value is reported as “numerical increases” in the data set with Male C57Bl/6J mice [4] (DCS 300 mg/kg in combination with EMD281,014) and “significantly increased” with Male C57Bl/6J mice [4] (DCS 300 mg/kg in the presence of MDL100,907). For the same compound, the “Mean plasma level over 30-120 min” value in data set [5] (30 mg/kg IP, mice) is given as “below 25 microgram/mL”. The “Plasma levels over 30-120 min” value in data set [5] (doses of 100 mg/kg or above IP, mice) is “greater than 25 microgram/mL”. For the same compound, the “Maximum tolerated blood level” value in data set [5] (suggested from maximum tolerated dose) is given as “approximately 125 ug/mL”. For the same compound, the “Hydrolysis of orally administered D-cycloserine during gastric emptying” value in data set [6] is on record as “up to 50%”. Further, the “Reversal of the effects of MDL100,907 in the EPM, in words” value in the data set on Male C57Bl/6J mice [1] (DCS 300 mg/kg vs 30 mg/kg with MDL100,907 (Table 1 lines 6,7)) was “significantly reverses the effects of MDL100,907 at a dose of 300 mg/kg, but not 30 mg/kg”. Also, in the data set on Male C57Bl/6J mice [1] (DCS 300 mg/kg with aripiprazole 1 mg/kg), the “Effect in the EPM in the presence of aripiprazole, in words” value is given as “no significant effect”. Further, the “Reversal of the effects of lurasidone in the EPM, in words” value in the data set with Male C57Bl/6J mice [1] (DCS 300 mg/kg with lurasidone 0.1-0.3 mg/kg) is reported as “significantly reverses the effects of lurasidone”. For the same compound, the “Reversal of the effects of quetiapine in the EPM, in words” value with Male C57Bl/6J mice [1] (DCS 300 mg/kg with quetiapine 30 mg/kg) is “reversed at trend level”. Moreover, the “Distance Traveled Open (DTO) Mean” value in the data set on Male C57Bl/6J mice [1] (30 mg/kg ip alone) was determined as 295.8; in the data set with Male C57Bl/6J mice [1] (300 mg/kg ip alone) it was 287.5. Further, the results for the “Percent open (PCT) Mean” value with Male C57Bl/6J mice [1] (30 mg/kg ip alone) and in the data set with Male C57Bl/6J mice [1] (300 mg/kg ip alone) were 44.6% and 45.4%, respectively. Moreover, the “Mean distance travelled in the open arm of the EPM” value in the data set on Male C57Bl/6J mice [1] (300 mg/kg) came out at 369.70. In the data set with Male C57Bl/6J mice [1], the “Effect on distance travelled in open arm / % time in open arm of EPM, in words” value is “selectively increases % time in open arms at a dose of 300 mg/kg but not at a dose of 30 mg/kg”.

Take `O=C(/C=C/c1c(C(=O)O)[nH]c2cc(Cl)cc(Cl)c12)Nc1ccccc1` [Gavestinel]: the “Mean immobility time” value amounted to 136.10 in the data set on Male BalbC/J mice (0.1 mg/kg); 116.30 in the data set on Male BalbC/J mice (0.3 mg/kg); 109.60 in the data set on Male BalbC/J mice (1.0 mg/kg); 122.70 in the data set with Male BalbC/J mice (3.0 mg/kg); 111.40 in the data set on Male BalbC/J mice (10 mg/kg); 131.90 with Male BalbC/J mice (30 mg/kg). Besides, the “Effect on immobility in the FST, in words” value in the data set with Male BalbC/J mice is “numerically reduce immobility”.

As for `O=C1[C@@H]2[C@H]3CC[C@H](C3)[C@@H]2C(=O)N1C[C@@H]1CCCC[C@H]1CN1CCN(c2nsc3ccccc23)CC1` [Lurasidone], the results for the immobility time in the rodent forced swim test (FST), Mean with Male BalbC/J mice (1 mpk alone), in the data set with Male BalbC/J mice (3 mpk alone) and with Male BalbC/J mice (.2 mpk alone) were 157 s, 169 s and 146 s, respectively. Also, the “DTO Mean” value in the data set with Male C57Bl/6J mice [1] (.1 mg/kg alone) was 172.9; with Male C57Bl/6J mice [1] (.2 mg/kg alone), 120.8; in the data set on Male C57Bl/6J mice [1] (.3 mg/kg alone) it was 134.2. Moreover, the “PCT Mean” value in the data set on Male C57Bl/6J mice [1] (.1 mg/kg alone) was 32.5%; with Male C57Bl/6J mice [1] (.2 mg/kg alone), 22.9%; in the data set with Male C57Bl/6J mice [1] (.3 mg/kg alone), 26.6%.

`COc1cccc([C@H](O)C2CCN(CCc3ccc(F)cc3)CC2)c1OC` [MDL100907]: the “Distance travelled in the open arm and % time in the open arm, in words” value in the data set on Male C57Bl/6J mice [4] is recorded as “significantly reduced”. In addition, in the data set with Male C57Bl/6J mice [1] (.3 mg/kg alone), the “Distance Traveled Open (DTO) Mean” value is 114.3 and the “Percent open (PCT) Mean” value is recorded as 19.2%. The “Effect on distance travelled in open arm / % time in open arm of EPM, in words” value in the data set on Male C57Bl/6J mice [1] was “significantly reduces both distance travelled in the open arm and % open arm activity”.

With `CN[C@H]1CC[C@@H](c2ccc(Cl)c(Cl)c2)c2ccccc21` [Sertraline], the “Mean immobility time” value with Male BalbC/J mice (20 mg/kg) came out at 85.50.

For the compound `O=C(c1ccc(F)cc1)C1CCN(CCn2c(=O)[nH]c3ccccc3c2=O)CC1` [ketanserin], the “Distance travelled in the open arm and % time in the open arm, in words” value with Male C57Bl/6J mice [4] was “significantly reduced”.
